{
  "source": "patent US20230234943A1",
  "about": "“TREX1 INHIBITORS AND USES THEREOF” (Tempest Therapeutics, Inc., priority 2020, published 2023)",
  "key": {"[1]": {"biological_target": "T1, Human TREX1 (Homo sapiens, UniProt Q9NSU2)", "T1 sequence (Q9NSU2 1-314)": "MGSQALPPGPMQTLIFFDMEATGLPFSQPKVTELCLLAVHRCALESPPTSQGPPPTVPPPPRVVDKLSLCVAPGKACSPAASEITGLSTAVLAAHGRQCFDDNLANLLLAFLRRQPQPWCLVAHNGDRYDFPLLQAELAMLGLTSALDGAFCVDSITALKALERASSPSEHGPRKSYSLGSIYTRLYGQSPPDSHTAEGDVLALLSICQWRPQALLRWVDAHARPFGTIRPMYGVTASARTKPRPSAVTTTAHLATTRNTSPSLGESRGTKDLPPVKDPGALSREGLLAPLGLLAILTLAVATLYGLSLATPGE", "test": "Gel assay (orthogonal control, IR-680 oligonucleotide strand degradation)", "format": "biochemical", "conditions": "polyacrylamide gel, top band intensity; different doses of inhibitor", "description": "A gel assay was conducted as an orthogonal control to confirm observations of TREX1 inhibitors determined with the fluorescence-based assay. Briefly, compounds were diluted in DMSO at 50× the final concentration. Human TREX1 was diluted to […] (2×concentration) in assay buffer (assay buffer: 20 mM Tris pH 7.7 (Life T-echnologies), 5 mM MgCl2 (Sigma), 0.01% HSA (Sigma), 0.01% Brij-35 (ThermoFisher), 2 mM DTT (Sigma)). Oligonucleotide strand (IR-680-5′[…]-3′) (Custom probe made by Trilink) was diluted in the same assay buffer to a working concentration of 25 nM (final concentration of 12.5 nM). Example 107 was added to […] human TREX1 enzyme in clear 96 well plates. The plate was then incubated at 25° C. for 30 minutes. Twenty five nM oligonucleotide strand was added to the plate, to a final concentration of 30 pM TREX1, 12.5 nM oligo, 1× compound and incubated at 25° C. Fifteen minutes later, the reaction was stopped by removing 10 μl of the reaction and adding it to 20 μl of a solution of 50 mM EDTA/1.5× loading dye buffer (6× Orange DNA loading dye; ThermoFisher) in a 96 well PCR plate. […] The top band was quantified using Image Studio (Licor). […] The top band intensity was measured using the Odyssey scanner (Li-Cor) and ImageStudio software (Li-Cor) and FIG. 1B: Graph representing the percent of top band intensity degradation as a measure of human TREX1 activity. […]"}, "[2]": {"biological_target": "T2, Human TREX1 enzyme (amino acids 1-242) (Homo sapiens, UniProt Q9NSU2)", "T2 construct": "Human TREX1 enzyme (amino acids 1-242)", "T2 sequence (Q9NSU2 1-242)": "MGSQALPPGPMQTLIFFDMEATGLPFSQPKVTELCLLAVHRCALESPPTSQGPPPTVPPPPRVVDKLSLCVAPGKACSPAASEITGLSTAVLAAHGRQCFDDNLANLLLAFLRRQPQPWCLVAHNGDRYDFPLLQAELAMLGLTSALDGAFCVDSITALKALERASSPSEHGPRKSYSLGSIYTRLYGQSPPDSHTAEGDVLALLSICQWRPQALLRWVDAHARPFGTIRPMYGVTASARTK", "test": "Human TREX1 enzymatic assay with dsDNA native oligonucleotide (Picogreen fluorescence)", "format": "biochemical", "conditions": "2 mM dithiothreitol in assay buffer; 50 nM dsDNA oligonucleotide; 30 min preincubation at 25° C.; read-out: TREX1/Human + DTT IC50 AVG", "procedure,_shortened": "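Remaining dsDNA quantified by Picogreen fluorescence after EDTA quench, with no-enzyme and DMSO wells as controls. Reactions used 50 nM annealed oligonucleotide for 5–15 min at 25 °C, after a 30 min compound–enzyme preincubation (0.8–0.16 nM TREX1; 2% DMSO; pH 7.7 Tris, 5 mM MgCl2).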"}},
  "note": "pIC50: −log10 of the molar value.",
  "data": [
    {"smiles": "COc1cc(-c2nc3ccc(N4CCN(S(C)(=O)=O)CC4)cc3n2C2CCOC2)cc(O)c1O", "note": "(centres unmarked) [Example 107, 3-methoxy-5-(6-(4-(methylsulfonyl)piperazin-1-yl)-1-(tetrahydrofuran-3-yl)-1H-benzo[d]imidazol-2-yl)benzene-1,2-diol]", "values": [
      {"measurement": "inhibition of human TREX1 / DNA degradation in gel assay (FIGS. 1A and 1B)", "setting": "[1]", "value": "inhibits human TREX1 and prevents DNA degradation"},
      {"measurement": "pIC50", "setting": "[2]", "value": "5.00 to 6.00"}
    ]}
  ]
}
